Test results: the supplement of paper PMC13207355

What was measured:
Conditions in all cases: exposure time: 72 h
E34 [1] = patient-derived glioblastoma stem cells of proneural subtype; experiment: phenotypic distance (Euclidean, principal components) from DMSO controls (arbitrary units); higher = stronger morphological change
E31 [2] = patient-derived glioblastoma stem cells of proneural subtype; experiment: as above
E28 [3] = patient-derived glioblastoma stem cells of classical subtype; experiment: as above
E57 [4] = patient-derived glioblastoma stem cells of mesenchymal subtype; experiment: as above
E21 [5] = patient-derived glioblastoma stem cells of mesenchymal subtype; experiment: as above
E13 [6] = patient-derived glioblastoma stem cells of classical subtype; experiment: as above
FT3469 [7] = normal neural stem cell line; experiment: as above
E34 [8] = experiment: surviving fraction (nuclei count normalised to DMSO); higher = more cells surviving (less toxic)
E31 [9] = experiment: as above
E28 [10] = experiment: as above
E57 [11] = experiment: as above
E21 [12] = experiment: as above
E13 [13] = experiment: as above
FT3469 [14] = experiment: as above
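For phenotypic distance (Euclidean, principal components) from DMSO controls in this document: cell Painting imaging in 384-well plates, CellProfiler features reduced to at least 20 principal components, Euclidean distance versus same-plate DMSO vehicle wells (0.1% v/v), median over six images per well.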
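For surviving fraction (nuclei count normalised to DMSO) in this document: nuclei counted by high-content imaging of Hoechst-stained cells in laminin-coated 384-well plates, relative to 0.1% DMSO vehicle wells, with staurosporine as cell-death control.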

Clc1ccc(COC(Cn2ccnc2)c2ccc(Cl)cc2Cl)cc1 (stereo not drawn) [Econazole nitrate]
Conditions	phenotypic distance	surviving fraction
E13 [6], 4.1 nM	0.86	–
E13 [6], 12.3 nM	0.584	–
E13 [6], 37 nM	0.567	–
E13 [6], 111.1 nM	1.07	–
E13 [6], 333.3 nM	1.37	–
E13 [6], 1000 nM	0.962	–
E13 [6], 3000 nM	1.16	–
E13 [13], 4.1 nM	–	0.964
E13 [13], 12.3 nM	–	1.05
E13 [13], 37 nM	–	0.999
E13 [13], 111.1 nM	–	1.11
E13 [13], 333.3 nM	–	1.08
E13 [13], 1000 nM	–	0.997
E13 [13], 3000 nM	–	0.967
E21 [5], 4.1 nM	0.651	–
E21 [5], 12.3 nM	0.516	–
E21 [5], 37 nM	0.785	–
E21 [5], 111.1 nM	0.844	–
E21 [5], 333.3 nM	0.917	–
E21 [5], 1000 nM	0.797	–
E21 [5], 3000 nM	1.31	–
E21 [12], 4.1 nM	–	1.11
E21 [12], 12.3 nM	–	0.967
E21 [12], 37 nM	–	0.99
E21 [12], 111.1 nM	–	1.03
E21 [12], 333.3 nM	–	1.01
E21 [12], 1000 nM	–	1.11
E21 [12], 3000 nM	–	1.18
E28 [3], 4.1 nM	0.359	–
E28 [3], 12.3 nM	0.539	–
E28 [3], 37 nM	0.504	–
E28 [3], 111.1 nM	0.446	–
E28 [3], 333.3 nM	0.803	–
E28 [3], 1000 nM	0.72	–
E28 [3], 3000 nM	0.946	–
E28 [10], 4.1 nM	–	1.06
E28 [10], 12.3 nM	–	1.03
E28 [10], 37 nM	–	1.06
E28 [10], 111.1 nM	–	0.943
E28 [10], 333.3 nM	–	1.12
E28 [10], 1000 nM	–	0.941
E28 [10], 3000 nM	–	0.965
E31 [2], 4.1 nM	0.819	–
E31 [2], 12.3 nM	0.415	–
E31 [2], 37 nM	0.765	–
E31 [2], 111.1 nM	0.767	–
E31 [2], 333.3 nM	0.871	–
E31 [2], 1000 nM	1.4	–
E31 [2], 3000 nM	1.39	–
E31 [9], 4.1 nM	–	1.03
E31 [9], 12.3 nM	–	0.985
E31 [9], 37 nM	–	0.969
E31 [9], 111.1 nM	–	0.924
E31 [9], 333.3 nM	–	1.08
E31 [9], 1000 nM	–	1.17
E31 [9], 3000 nM	–	1.14
E34 [1], 4.1 nM	0.901	–
E34 [1], 12.3 nM	0.505	–
E34 [1], 37 nM	0.479	–
E34 [1], 111.1 nM	1.39	–
E34 [1], 333.3 nM	0.912	–
E34 [1], 1000 nM	1.29	–
E34 [1], 3000 nM	1.17	–
E34 [8], 4.1 nM	–	0.983
E34 [8], 12.3 nM	–	1.08
E34 [8], 37 nM	–	1.01
E34 [8], 111.1 nM	–	1.17
E34 [8], 333.3 nM	–	1.03
E34 [8], 1000 nM	–	1.11
E34 [8], 3000 nM	–	0.957
E57 [4], 4.1 nM	0.324	–
E57 [4], 12.3 nM	0.67	–
E57 [4], 37 nM	0.501	–
E57 [4], 111.1 nM	0.756	–
E57 [4], 333.3 nM	0.858	–
E57 [4], 1000 nM	1.1	–
E57 [4], 3000 nM	1.45	–
E57 [11], 4.1 nM	–	1.02
E57 [11], 12.3 nM	–	1.04
E57 [11], 37 nM	–	1.07
E57 [11], 111.1 nM	–	1.06
E57 [11], 333.3 nM	–	1.09
E57 [11], 1000 nM	–	1.03
E57 [11], 3000 nM	–	1.05
FT3469 [7], 4.1 nM	0.434	–
FT3469 [7], 12.3 nM	0.211	–
FT3469 [7], 37 nM	0.645	–
FT3469 [7], 111.1 nM	0.741	–
FT3469 [7], 333.3 nM	0.628	–
FT3469 [7], 1000 nM	0.747	–
FT3469 [7], 3000 nM	0.632	–
FT3469 [14], 4.1 nM	–	0.824
FT3469 [14], 12.3 nM	–	0.949
FT3469 [14], 37 nM	–	1.04
FT3469 [14], 111.1 nM	–	1.03
FT3469 [14], 333.3 nM	–	0.854
FT3469 [14], 1000 nM	–	0.902
FT3469 [14], 3000 nM	–	0.864
